According to PubChem BioAssay (NCI):
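Grown in 96-well plates, cells were treated for 48 hours with each compound at five concentrations. Insufficient inhibition: endpoint recorded as highest concentration tested. TGI denotes the concentration required for complete inhibition of growth.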

Legend:
Assay in all cases: DTP human tumour cell line panel, 48 h
786-0 renal = tested on: 786-0 renal
A498 renal = tested on: A498 renal
A549 NSCLC = tested on: A549 NSCLC
ACHN renal = tested on: ACHN renal
CAKI-1 renal = tested on: CAKI-1 renal
CCRF-CEM leukemia = tested on: CCRF-CEM leukemia
COLO 205 colon = tested on: COLO 205 colon
DLD-1 colon = tested on: DLD-1 colon
DMS 114 small cell lung = tested on: DMS 114 small cell lung
DMS 273 small cell lung = tested on: DMS 273 small cell lung
EKVX NSCLC = tested on: EKVX NSCLC
HCC-2998 colon = tested on: HCC-2998 colon
HCT-116 colon = tested on: HCT-116 colon
HCT-15 colon = tested on: HCT-15 colon
HL-60(TB) leukemia = tested on: HL-60(TB) leukemia
HOP-18 NSCLC = tested on: HOP-18 NSCLC
HOP-62 NSCLC = tested on: HOP-62 NSCLC
HOP-92 NSCLC = tested on: HOP-92 NSCLC
HT29 colon = tested on: HT29 colon
IGROV1 ovarian = tested on: IGROV1 ovarian
K-562 leukemia = tested on: K-562 leukemia
KM12 colon = tested on: KM12 colon
KM20L2 colon = tested on: KM20L2 colon
LOX IMVI melanoma = tested on: LOX IMVI melanoma
LXFL 529 NSCLC = tested on: LXFL 529 NSCLC
M14 melanoma = tested on: M14 melanoma
M19-MEL melanoma = tested on: M19-MEL melanoma
MALME-3M melanoma = tested on: MALME-3M melanoma
MOLT-4 leukemia = tested on: MOLT-4 leukemia
NCI-H226 lung = tested on: NCI-H226 lung
NCI-H23 lung = tested on: NCI-H23 lung
NCI-H460 lung = tested on: NCI-H460 lung
NCI-H522 lung = tested on: NCI-H522 lung
OVCAR-3 ovarian = tested on: OVCAR-3 ovarian
OVCAR-5 ovarian = tested on: OVCAR-5 ovarian
OVCAR-8 ovarian = tested on: OVCAR-8 ovarian
RPMI-8226 leukemia = tested on: RPMI-8226 leukemia
RXF 393 renal = tested on: RXF 393 renal
SF-268 CNS = tested on: SF-268 CNS
SF-295 CNS = tested on: SF-295 CNS
SF-539 CNS = tested on: SF-539 CNS
SK-MEL-2 melanoma = tested on: SK-MEL-2 melanoma
SK-MEL-28 melanoma = tested on: SK-MEL-28 melanoma
SK-MEL-5 melanoma = tested on: SK-MEL-5 melanoma
SK-OV-3 ovarian = tested on: SK-OV-3 ovarian
SN12C renal = tested on: SN12C renal
SNB-19 CNS = tested on: SNB-19 CNS
SNB-75 CNS = tested on: SNB-75 CNS
SR leukemia = tested on: SR leukemia
SW-620 colon = tested on: SW-620 colon
TK-10 renal = tested on: TK-10 renal
U251 CNS = tested on: U251 CNS
UACC-257 melanoma = tested on: UACC-257 melanoma
UACC-62 melanoma = tested on: UACC-62 melanoma
UO-31 renal = tested on: UO-31 renal
XF 498 CNS = tested on: XF 498 CNS
OVCAR-4 ovarian = tested on: OVCAR-4 ovarian
RXF-631 renal = tested on: RXF-631 renal
SNB-78 CNS = tested on: SNB-78 CNS

CC1C=C(CCCCCCCCCCCC[C@@H](O)[C@@H]2CC[C@@H]([C@@H]3CC[C@@H](C(O)CCCCCCCCCCCCC4=C[C@H](C)OC4=O)O3)O2)C(=O)O1 (stereo not given in full)
TGI (786-0 renal): > 100 µM
TGI (A498 renal): > 100 µM
TGI (A549 NSCLC): > 100 µM
TGI (ACHN renal): > 100 µM
TGI (CAKI-1 renal): > 100 µM
TGI (CCRF-CEM leukemia): > 100 µM
TGI (COLO 205 colon): > 100 µM
TGI (DLD-1 colon): > 100 µM
TGI (DMS 114 small cell lung): > 100 µM
TGI (DMS 273 small cell lung): > 100 µM
TGI (EKVX NSCLC): > 100 µM
TGI (HCC-2998 colon): > 100 µM
TGI (HCT-116 colon): > 100 µM
TGI (HCT-15 colon): > 100 µM
TGI (HL-60(TB) leukemia): > 100 µM
TGI (HOP-18 NSCLC): > 100 µM
TGI (HOP-62 NSCLC): > 100 µM
TGI (HOP-92 NSCLC): > 100 µM
TGI (HT29 colon): > 100 µM
TGI (IGROV1 ovarian): > 100 µM
TGI (K-562 leukemia): > 100 µM
TGI (KM12 colon): > 100 µM
TGI (KM20L2 colon): > 100 µM
TGI (LOX IMVI melanoma): > 100 µM
TGI (LXFL 529 NSCLC): > 100 µM
TGI (M14 melanoma): > 100 µM
TGI (M19-MEL melanoma): > 100 µM
TGI (MALME-3M melanoma): > 100 µM
TGI (MOLT-4 leukemia): > 100 µM
TGI (NCI-H226 lung): > 100 µM
TGI (NCI-H23 lung): > 100 µM
TGI (NCI-H460 lung): > 100 µM
TGI (NCI-H522 lung): 39.6 µM
TGI (OVCAR-3 ovarian): > 100 µM
TGI (OVCAR-5 ovarian): > 100 µM
TGI (OVCAR-8 ovarian): > 100 µM
TGI (RPMI-8226 leukemia): > 84.5 µM
TGI (RXF 393 renal): > 100 µM
TGI (SF-268 CNS): > 100 µM
TGI (SF-295 CNS): > 100 µM
TGI (SF-539 CNS): 52.6 µM
TGI (SK-MEL-2 melanoma): > 100 µM
TGI (SK-MEL-28 melanoma): > 100 µM
TGI (SK-MEL-5 melanoma): 27.4 µM
TGI (SK-OV-3 ovarian): > 100 µM
TGI (SN12C renal): > 100 µM
TGI (SNB-19 CNS): > 100 µM
TGI (SNB-75 CNS): > 100 µM
TGI (SR leukemia): > 55 µM
TGI (SW-620 colon): > 100 µM
TGI (TK-10 renal): > 100 µM
TGI (U251 CNS): > 100 µM
TGI (UACC-257 melanoma): > 100 µM
TGI (UACC-62 melanoma): > 100 µM
TGI (UO-31 renal): > 100 µM
TGI (XF 498 CNS): > 100 µM

C[n+]1c2ccccc2c(/C=N\NS(=O)(=O)c2ccc(O)c(C(=O)O)c2)c2ccccc21
TGI (786-0 renal): > 100 µM
TGI (A498 renal): > 100 µM
TGI (A549 NSCLC): > 100 µM
TGI (ACHN renal): > 100 µM
TGI (CAKI-1 renal): > 100 µM
TGI (CCRF-CEM leukemia): > 100 µM
TGI (DLD-1 colon): > 100 µM
TGI (DMS 114 small cell lung): > 100 µM
TGI (DMS 273 small cell lung): > 100 µM
TGI (EKVX NSCLC): > 100 µM
TGI (HCC-2998 colon): > 100 µM
TGI (HCT-116 colon): > 100 µM
TGI (HCT-15 colon): > 100 µM
TGI (HL-60(TB) leukemia): 84.2 µM
TGI (HOP-62 NSCLC): > 100 µM
TGI (HOP-92 NSCLC): > 100 µM
TGI (HT29 colon): > 100 µM
TGI (IGROV1 ovarian): > 100 µM
TGI (K-562 leukemia): > 100 µM
TGI (KM12 colon): > 100 µM
TGI (KM20L2 colon): > 100 µM
TGI (LOX IMVI melanoma): > 100 µM
TGI (M14 melanoma): > 100 µM
TGI (M19-MEL melanoma): > 100 µM
TGI (MALME-3M melanoma): > 100 µM
TGI (MOLT-4 leukemia): 62 µM
TGI (NCI-H226 lung): > 100 µM
TGI (NCI-H23 lung): > 100 µM
TGI (NCI-H460 lung): > 100 µM
TGI (NCI-H522 lung): > 100 µM
TGI (OVCAR-3 ovarian): > 100 µM
TGI (OVCAR-4 ovarian): > 100 µM
TGI (OVCAR-5 ovarian): > 100 µM
TGI (OVCAR-8 ovarian): > 100 µM
TGI (RPMI-8226 leukemia): > 100 µM
TGI (RXF 393 renal): > 100 µM
TGI (RXF-631 renal): > 100 µM
TGI (SF-268 CNS): > 100 µM
TGI (SF-295 CNS): > 100 µM
TGI (SF-539 CNS): > 100 µM
TGI (SK-MEL-2 melanoma): > 100 µM
TGI (SK-MEL-28 melanoma): > 100 µM
TGI (SK-MEL-5 melanoma): > 100 µM
TGI (SK-OV-3 ovarian): > 100 µM
TGI (SN12C renal): > 100 µM
TGI (SNB-19 CNS): > 100 µM
TGI (SNB-75 CNS): > 100 µM
TGI (SNB-78 CNS): > 100 µM
TGI (SW-620 colon): > 100 µM
TGI (TK-10 renal): > 100 µM
TGI (U251 CNS): > 100 µM
TGI (UACC-62 melanoma): > 100 µM
TGI (UO-31 renal): > 100 µM
TGI (XF 498 CNS): 83.8 µM
